# Experimental data as given in patent publication US20050215644A1, “Methods for increasing neurotransmitter levels using hydroxycitric acid” (InterHealth Nutraceuticals, Inc., priority 2004, published 2005).
# Assays:
# [1] = system: rat brain cortex neurotransmitters; experiment: effects of an HCA extract and fluoxetine on rat brain cortex neurotransmitters (reverse phase HPLC with electrochemical detection); format: in vivo; details: for decrease in cortex HIAA / decrease in cortex 5-HT / decrease in DA / decrease in cortex HVA: 15 mg/kg per day oral; for decrease in cortex HIAA / decrease in DA / decrease in cortex HVA / increase in DOPAC / increase in cortex DA / increase in cortex 5-HT: p<0.05; for increase in DOPAC / increase in cortex DA / increase in cortex 5-HT: after 90 days
# Experimental: […] The 5% HCA dose corresponds to 25-times the recommended dose of HCA. Animals were euthanized after 30, 60 and 90 days. Brain cortices were analyzed for serotonin (5-HT), its metabolite 5-hydroxyindoleacetic acid (HIAA), dopamine (DA), and its metabolites 3, 4-dihydroxyphenylacetic acid (DOPAC) and homovanillic acid (HVA) content utilizing reverse phase HPLC with electrochemical detection.
# [2] = system: isolated rat brain cortex; details: cited from earlier work
# [3] = first of three values (day 30 by analogy with b27)
# [4] = second of three values (day 60 by analogy with b27)
# [5] = third of three values (day 90 by analogy with b27)
compound,measurement,setting,value
"CNCCC(Oc1ccc(C(F)(F)F)cc1)c1ccccc1 (centres unmarked) [fluoxetine, reference compound]",decrease in cortex HIAA,[1]; 30 days post-treatment,19%
same,decrease in cortex HIAA,[1]; 60 days post-treatment,15%
same,decrease in cortex HIAA,[1]; 90 days post-treatment,17%
same,decrease in cortex 5-HT,"[1]; day 30, p<0.05",9%
same,decrease in cortex 5-HT,"[1]; day 60, p<0.05",7%
same,decrease in cortex 5-HT,"[1]; day 90, p<0.05",8%
same,decrease in DA,[1]; [3],18%
same,decrease in cortex HVA,[1]; [3],17%
same,decrease in DA,[1]; [4],15%
same,decrease in cortex HVA,[1]; [4],13%
same,decrease in DA,[1]; [5],19%
same,decrease in cortex HVA,[1]; [5],14%
same,changes in cortex DOPAC,"[1]; all fluoxetine groups (15 mg/kg per day oral; 30, 60, 90 days)",No changes
"O=C(O)CC(O)(C(=O)O)C(O)C(=O)O (single isomer, unassigned; (-)) [HCA, (−)-hydroxycitric acid]",increase in DOPAC,[1]; HCA 0.02% oral,23%
same,increase in cortex DA,[1]; HCA 0.02% oral,10%
same,increase in cortex HVA,"[1]; HCA 0.02% oral, day 90, p<0.05",12%
same,increase in cortex 5-HT,[1]; HCA 0.2% of diet (10 mg per day) oral,11%
same,increase in cortex 5-HT,[1]; HCA 2% of diet (100 mg per day) oral,9%
same,increase in DOPAC,[1]; HCA 2% of diet oral,26%
same,increase in cortex DA,[1]; HCA 2% of diet oral,15%
same,increase in cortex HVA,"[1]; HCA 2% of diet oral, day 90, p<0.05",15%
same,increase in cortex 5-HT,[1]; HCA 5% of diet (250 mg per day) oral,12%
same,increase in DOPAC,[1]; HCA 5% of diet oral,29%
same,increase in cortex DA,[1]; HCA 5% of diet oral,18%
same,increase in cortex HVA,"[1]; HCA 5% of diet oral, day 90, p<0.05",13%
same,changes in HIAA,"[1]; any of the HCA treatment groups (0.2, 2, 5% of diet; 30, 60, 90 days)",No changes
same,efflux of 5-HT,[2]; HCA applied on its own,concentration-dependent increase
same,effect on baseline of spontaneous tritium efflux,[2],altered the baseline
same,effect on potassium-evoked release of 5-HT,[2],no significant effect
